For assay [1], the system named is western corn root worm larvae. The note with it: literature reports; cited from earlier work.
Assay [2] deals with Reticulitermes flavipes. The experiment in a line: T-tube choice-test behavioral bioassay with CO2. In kind it is in vivo. The note with it: versus ambient air. As to the method:
(§1) Behavioral bioassay apparatus: The choice-test bioassay apparatus was constructed from a glass T-tube (5 mm inside diameter, 5 mm stem, with each branch 4.5 cm long). Each branch of the ‘T’ was bent downward (2.5 cm from the junction of the ‘T’) at a 45° angle to form a pitfall trap. A 5 mm NMR cap (cat. no. 100-0050, Drummond Scientific, Broomall, Pa.) with a 1 mm pinhole in it was firmly pushed over the end of each bent branch. A 25 cm length of Teflon tubing (0.8 mm inside diameter) was inserted 3 mm into the hole in each NMR cap and the other end of the tubing was connected to a 35 ml polyethylene syringe (cat. no. 106-0490, Sherwood Medical, St. Louis, Mo.). The two 35-ml syringes were connected to a syringe pump which was adjusted to provide an airflow of 1 ml per min into each choice arm of the bioassay apparatus. Mixtures of CO2 and ambient air were tested to determine the termite response to a range of CO2 concentrations. A 35-ml syringe was rinsed with distilled water and partially filled (5 ml) with ambient air. Different amounts of 100% CO2 were obtained with a smaller glass syringe from a tank and injected into the 35-ml syringe. Ambient air was then drawn into the 35-ml syringe to fill it and mix the gases by turbulence as the syringe was loaded. A 2nd 35-ml polyethylene syringe was filled with ambient air for a control. Measurements with GC-MS-SIM confirmed that the CO2 concentrations reached equilibrium after 15 min. The CO2 concentration of the syringes was determined by using GC-MS-SIM analysis (see below) before each bioassay. Bioassays were conducted with both Reticulitermes tibialis and Reticulitermes flavipes for 1, 2, 5, 10, 20, 50 and 500 mmol per mol concentrations of CO2 and with Reticulitermes virginicus for 5, 10, 20, and 50 mmol per mol. Procedure: For bioassays, termite workers were collected from plastic tubs by using a camel's hair brush and were placed into a holding container constructed from a 3 cm length of Teflon tubing (8 mm inside diameter). The container was plugged at one end with a NMR cap with two holes (1 mm) drilled in the bottom. A second NMR cap with a 4 mm hole was inserted backwards into the other end of the Teflon tube. The end of the NMR cap was sealed with a small square of cellophane held in place with a plastic tube (a piece of plastic soda straw) that fit snugly over the open end. Termites (5 workers) were placed in the container and the top was sealed. The container was placed horizontally and left undisturbed for 20 min. The T-tube apparatus was assembled and clamped horizontally on top of a block of foam rubber (12 by 12 cm) with a wire bent into a U-shape. The syringe pump was turned on, and after 3 min of pumping, the cellophane seal was removed from the holding container and the entrance to the holding container was gently connected to the central arm of the T-tube, allowing termites to crawl out and enter the apparatus. Bioassays were conducted for 15 min, after which the number of termites in each pitfall was recorded. CO2 measurements: Gas chromatography-mass spectrometry in selected ion monitoring mode (GC-MS-SIM) at m/e 44 was used to determine CO2 concentrations. A Hewlett-Packard Series II 5890 gas chromatograph interfaced with a Hewlett-Packard 5971 mass selective detector was used with a methyl silicone capillary column (30 m×0.32 mm inside diameter, RSL-150, Alltech, Deerfield, Ill.). […]

Assay [3] concerns Reticulitermes tibialis. In words: T-tube choice-test behavioral bioassay with CO2. Type of assay: in vivo. The protocol: as §1
Assay [4] deals with Reticulitermes virginicus. The experiment in a line: T-tube choice-test behavioral bioassay with CO2. In kind it is in vivo. The note with it: versus ambient air. The protocol:
as §1

In assay [5] the test system is western corn root worm larvae.
Assay [6] deals with wireworm larvae. The note with it: Doane et al. (1975); cited from earlier work.
For assay [7], the system named is plant-parasitic nematodes. Conditions: cited from earlier work.

Structures are written as SMILES. Several values for one entry are separate records, joined by “and”; a condition that tells them apart may be missing. Identical values can stand only once. Entries after “also recorded” stand apart in the source; their conditions may differ. Like-named read-outs stand apart in the source and are kept apart here.

Consider `ClCCl` [dichloromethane, reference compound], for which, in assay [1], the “Attraction of larvae reported in earlier publications” value is “attractive to Diabrotica larvae”.
Consider `O=C=O` [CO2, Carbon dioxide], for which the “CO2 concentration of best attraction” value was 10 mmol per mol in assay [2], 5 mmol per mol in assay [3] (versus ambient air) and 10 mmol per mol in assay [4]. The “Termites choosing CO2 side versus control side” value in assay [3] (5 mmol/mol CO2 versus ambient air) is “significantly greater than the number that moved to the control side; also recorded: significantly more often; also recorded: Significantly more termites (p<0.05) were attracted to the side containing 5 mmol/mol CO2 than to the control side”. Also, the “CO2 concentrations to which termites were attracted” value in assay [3] (versus ambient air, 5 workers, 15 min) is 10 mmol per mol and 20 mmol per mol. Further, the “Selective response, attraction to higher CO2 concentration” value was “no difference in attraction was observed in any of the tests at higher concentrations” in assay [5] (0.125 mmol/mol difference at higher base concentrations); “significantly greater attraction was observed to 1.125 mmol/mol than to 1 mmol/mol” in assay [5] (1 versus 1.125 mmol/mol (actual 1.06±0.05 versus 1.18±0.05)); “more attracted to the higher CO2 concentration” in assay [5] (1 versus 1.25 mmol/mol); “Significantly more larvae were attracted” in assay [5] (1 versus 1.50 mmol/mol); “more attracted to the higher CO2 concentration” in assay [5] (2 versus 2.25 mmol/mol); “Significantly more larvae were attracted” in assay [5] (2 versus 2.50 mmol/mol). The “Selective response, attraction to higher CO2 concentration” value is listed as “no difference in attraction was observed” in assay [5] (5 versus 5.25 mmol/mol); “Significantly more larvae were attracted” in assay [5] (5 versus 5.50 mmol/mol); “no difference in attraction was observed” in assay [5] (10 versus 10.25 mmol/mol); “Significantly more larvae were attracted” in assay [5] (10 versus 10.50 mmol/mol); “no difference in attraction was observed” in assay [5] (20 versus 20.25 mmol/mol); “no difference in attraction was observed” in assay [5] (20 versus 20.50 mmol/mol). Besides, in assay [5] (10 mmol/mol CO2 (10.43±0.18) versus ambient air, syringe sources), the “Larvae attracted to CO2 side versus control side” value is listed as “significantly more western corn root worm larvae (P<0.05) were attracted to the side containing 10 mmol/mol CO2”. Further, the “Smallest difference between the 2 CO2 choices still attracting larvae to the higher concentration” value in assay [5] (base level 1 mmol/mol) is on record as 0.125 mmol/mol. In assay [5] (control contained 1, 2, 5, 10, and 20 mmol/mol CO2), the “CO2 excess over control at which larvae were 1st attracted” value worked out at 12.5%. Besides, in assay [5] (control side ambient air 0.99±0.02 mmol/mol), the “Lowest CO2 concentration significantly attractive to neonate larvae” value was 1.125±0.04 mmol/mol. In addition, the “Highest concentration of CO2 to which larvae were attracted” value in assay [5] (dose-response, syringe sources) was 100 mmol/mol and 85.6±1.20 mmol/mol. Further, the “Most attractive (optimal) concentrations of CO2” value in assay [5] (dose-response, syringe sources) was 2.51-4.20 mmol/mol and 2.51±0.13 mmol/mol and 4.20±0.21 mmol/mol. In assay [5] (dose-response, syringe sources, control 0.91±0.03), the “Lowest concentration of CO2 attractive to the larvae” value is 1.34±0.05 mmol/mol. The “Smallest CO2 difference to which larvae respond” value in assay [6] was 0.02%. Besides, the results for the “CO2 threshold for nematode response” value in assay [7] (higher baseline concentration (1.0%)) and in assay [7] (low baseline levels of CO2 (0.1%)) were 0.05% and 0.01%, respectively. The “Attraction of larvae reported in earlier publications” value in assay [1] is “highly attracted to CO2”.

The values are drawn from US6978572B1, “Method and device for attracting insects” (Colorado State University Research Foundation, priority 1998, dated 2005).
